Data taken from patent US8784911B2, “Compositions for treatment and prevention of diabetic complications using Osteomeles schwerinae” (Korea Institute of Oriental Medicine, priority 2009, dated 2014).
Where two headings read alike, the source gives them in different places. Values belong to the compound of their own block, whether it stands above or below them.

Key:
[1] = system: advanced glycation endproduct generation (bovine serum albumin with fructose and glucose); test: In vitro inhibitory effect on advanced glycation endproduct generation (BSA + fructose/glucose, fluorescence); format: biochemical
Experimental: Inhibitory effect of Osteomeles schwerinae small twig/leaf extract, fractions thereof obtained from each of hexane layer, ethyl acetate layer, butanol layer and water layer of the extract, and Osteomeles schwerinae seed extract on advanced glycation endproduct generation was investigated in vitro. Bovine serum albumin (BSA, Sigma, USA) was used as a protein source. BSA was added to 50 mM phosphate buffer (pH 7.4) at the concentration of 10 mg/ml. As a sugar source, the mixed solution of 0.2 M fructose and 0.2 M glucose was used. The mixed solution of fructose and glucose was added to the BSA solution. Osteomeles schwerinae small twig/leaf extract was prepared at different concentrations of 5 μg/ml, 10 μg/ml and 25 μg/ml. Hexane layer was also prepared at the concentrations of 10 μg/ml, 25 μg/ml and 50 μg/ml. Ethyl acetate layer was prepared at different concentrations of 5 μg/ml, 10 μg/ml and 25 μg/ml. Butanol layer and water layer were respectively prepared at the concentrations of 2.5 μg/ml, 5 μg/ml and 10 μg/ml. Osteomeles schwerinae seed extract was also prepared at different concentrations of 5 μg/ml, 10 μg/ml and 25 μg/ml. (All of those compounds were dissolved in DMSO, to which 15% tween 80 was added. At this time, the content of DMSO was 0.2%). Each extract or fraction was mixed with the mixed solution of BSA and sugars, followed by culture at 37° C. for 14 or 28 days. At this time, 0.02% sodium azide and antimycotics were added thereto as the antibacterial and antifungal agent. For the control, the mixed solution of BSA and sugars was cultured. The blank groups of each experimental and the control were composed as the above but not cultured. For the positive control, which would be used as an index for the comparison of the effect, aminoguanidine was used. To avoid error, 4 of each culture solution were prepared. 14 or 28 days later, the content of advanced glycation endproducts generated in each culture solution was measured and compared. AGEs therein were fluorescent and brown colored. They have physiochemical properties for the cross-linking and also have ligand that can be recognized by cell membrane receptor. The amount of AGEs having the said properties was measured with microplate reader (Excitation: 350 nm, Emission: 450 nm) to analyze the inhibitory effect on the generation of AGEs (Vinson, J. A. et al., J. Nutr. Biochem., 7: 659-663, 1996).
Inhibitory rate of generation was calculated by the following formula. Inhibitory rate of generation(%)=100−(fluorescence intensity of experimental group sample−fluorescence intensity of empty sample)/(fluorescence intensity of control group sample−fluorescence intensity of control group empty sample)×100
Aminoguanidine was dissolved in distilled water and then cultured at the concentrations of 37 μg/ml, 55.5 μg/ml and 74 μg/ml at 37° C. for 14 days and also cultured at the concentrations of 18.5 μg/ml, 37.0 μg/ml and 92.5 μg/ml for 28 days by the same manner as described above. The amount of advanced glycation endproducts generated in each culture solution was measured with microplate reader (Excitation: 350 nm, Emission: 450 nm). Inhibitory effect of Osteomeles schwerinae small twig/leaf extract, its fractions and Osteomeles schwerinae seed extract on advanced glycation endproduct generation was measured in vitro by the same manner as described above and the results are shown in Table 2.

aldose reductase = molecular target: T1, aldose reductase (Rattus norvegicus, UniProt P07943); test: In vitro inhibitory effect on aldose reductase activity; format: biochemical, SD rat; conditions: for inhibition of aldose reductase activity: compounds isolated from Osteomeles schwerinae extract
T1 construct: To obtain natural aldose reductase from eyeballs of SD rat; from tissue; host or cells: lens of Sprague-Dawley rat (homogenate supernatant)
Experimental: To obtain natural aldose reductase from eyeballs of SD rat (Sprague-Dawley rat, 250-280 g) by the method of Dufrane (1984), the extracted lens were pulverized together with 135 mM Na, K-phosphate buffer (pH 7.0), and 10 mm 2-mercaptoethanol using homogenizer and sonicater. After performing centrifugation at 14000 rpm for 30 minutes, the supernatant was filtered with 0.2 μm filter at 4° C. Quantification was performed by Lowry method using BSA as a protein source of enzyme. The mixture of 135 mM Na, K-phosphate buffer (pH 7.0), 100 mM lithium sulfate, 0.03 mM NADPH, 0.04 mM DL-glyceraldehyde and 100 μg/ml enzyme was dissolved in 0.1% DMSO, which was added to 50 μl of each sample diluted at different concentrations. Total volume of the mixture was adjusted to 1 ml, followed by reaction at 37° C. for 10 minutes. […] The reaction was terminated by adding 0.3 ml of 0.5 N HCl, to which 1 in of 6 M NaOH supplemented with 10 mM imidazole wad added, followed by reaction at 60° C. for 10 minutes. Then, conversion rate (NADP fluorescent product) was measured. Each sample was tested in triplicate. Inhibition effect was measured by using spectrofluorophotometric detector (Ex. 360 nm, Em. 460 nm, Bio-TEK, Synergy HT, USA) and the results were presented as IC50.

[2] = system: type I diabetes animal model induced by streptozotocin (STZ); test: Type I diabetes animal model induced by streptozotocin; format: in vivo, SD rat
Experimental: Fully adapted (for 1 week) SD rats (6 weeks, 180-200 g) were used. After adaptation, the rats were fasted for 16 hours. Before the administration of samples, streptozotocin dissolved in 0.1 M citrate buffer (pH 4.5) was treated once by peritoneal injection (60 mg/kg). A week after the peritoneal injection, blood glucose level was measured at fasted or non-fasted state. Rats showing blood glucose level of at least 250 mg/dl at fasted state were selected and distributed fairly with considering the average. 5 groups were prepared as follows: the normal group treated with nothing (presented as Nor), the normal group treated with 200 mg/kg of Osteomeles schwerinae extract (presented as N+OS-141), the group induced with diabetes (presented as DM), the diabetes group treated with 100 mg/kg of Osteomeles schwerinae extract (presented as OS-100), and the positive control group treated with aminoguanidine (presented as AG). Osteomeles schwerinae extract and aminoguanidine were dissolved in water, which were administered orally to the rats every day (5 ml/kg) for 8 weeks. 8 weeks later, the animals were fasted, followed by autopsy. Blood was drawn from saphenons vein. Plasma was separated by centrifuging the whole blood at 3000 rpm at 4° C. The plasma was stored at −70° C. for the later use for data analysis. Each organ was weighed and frozen by using liquid nitrogen, which was stored at 70° C.
Urine was taken for 24 hours on the last week before autopsy to comparatively observe renal function indices and oxidative stress factors. ELISA was performed to measure AGEs and podocyte (synaptopodin). Urine was mixed with coating buffer (50 mM carbonate buffer, pH 9.6) at the ratio of 1:2, which was distributed in 96 well plate (100 μl/well). After incubating the plate at 37° C. for 3 hours, the plate was washed with 0.05% PBST three times, and blocked with 3% skim milk. The plate was stood for one hour and then washed. AGEs (Transgenic, Japan) and synaptopodin (Santa Cruz, USA) antibody were diluted at the ratio of 1:1000 respectively, followed by loading in each well of the plate by 100 μl, which stood at 37° C. for 2 hours. After washing the plate with 0.05% PBST, HRP-conjugated 2nd antibody was loaded in each well of the plate by 100 μl, which stood at 37° C. for 1 hour. 3,3′,5,5′-tetramethylbenzidine (TMB) was added in each well of the plate by 100 μl. Five minutes later, reaction termination solution (1M H2SO4) was added in each well of the plate by 100 μl and then OD was measured with ELISA reader. Albuminuria and creatinine (Cr) used as renal function indices were measured.
Kidney was extracted during autopsy, which was fixed in 10% neutralized formalin, followed by dehydration. The kidney was substituted with xylene three times, followed by embedding with paraffin. The embedded tissue block was cut into 4 μm sections, which were placed on microscope slide. PAS staining was performed to observe morphological changes. The stained slide was observed under optical microscope. […] To investigate fibrosis by collagen infiltrated in kidney cortex, Masson's trichrome staining was performed. Multiple numbers of collagen stained as blue by Masson's trichrome were observed around glomerular, basement membrane and in interstitial area between renal tubules in the diabetes group, but the difference was not significant from that of the normal group. […] Histological changes were traced 8 weeks after inducing diabetes. […]

[3] = 24 h urine, last week, vs diabetes group
[4] = STZ diabetic rats, 100 mg/kg oral daily, 8 weeks

SMILES: Oc1cc(O)c2c(c1)O[C@H](c1ccc(O)c(O)c1)[C@H](O)C2 [(−)-epicatechin]
- inhibition of advanced glycation endproduct generation [1]: confirmed to inhibit
- inhibition of aldose reductase activity (aldose reductase): confirmed to inhibit

SMILES: C=C(C)C1CCC2(CO)CCC3(C)C(CCC4C5(C)CCC(OC(=O)C=Cc6ccc(O)c(O)c6)C(C)(C)C5CCC43C)C12 (stereo not drawn) [betuline-3β-yl-caffeate]
- inhibition of advanced glycation endproduct generation [1]: confirmed to inhibit
- inhibition of aldose reductase activity (aldose reductase): confirmed to inhibit

SMILES: C=C(C)C1CCC2(C(=O)O)CCC3(C)C(CCC4C5(C)CCC(OC(=O)C=Cc6ccc(O)c(O)c6)C(C)(C)C5CCC43C)C12 (stereo not drawn) [betulinic acid-3β-yl-caffeate]
- inhibition of advanced glycation endproduct generation [1]: confirmed to inhibit
- inhibition of aldose reductase activity (aldose reductase): confirmed to inhibit

Further lines, with some results ahead:

- inhibition of aldose reductase activity (aldose reductase): confirmed to inhibit
SMILES: CC(=O)OC1C(c2c(O)cc(O)c3c(=O)cc(-c4ccc(O)cc4)oc23)OC(CO)C(O)C1O (centres unmarked) [2-O-acetylvitexin]
- inhibition of advanced glycation endproduct generation ([1]; compounds isolated from Osteomeles schwerinae extract): confirmed to inhibit

- inhibition at 3.72 µg/mL (aldose reductase; 3.72 μg/ml (20 μm)): 39.3 ± 4.17%
- inhibition at 4.66 µg/mL (aldose reductase; 4.66 μg/ml (25 μm)): 55.7 ± 3.25%
- inhibition at 5.59 µg/mL (aldose reductase; 5.59 μg/ml (30 μm)): 60.3 ± 1.39%
- IC50 (aldose reductase; read-out: inhibitory effect (IC50) on aldose reductase): 24.1 µM
- IC50 (aldose reductase; read-out: inhibitory effect (IC50, μg/ml) on aldose reductase (converted)): 24.2 µM
SMILES: O=C(O)CC1(CC(=O)O)CCCC1 [3,3-tetramethyleneglutaric acid]

- inhibitory effect (IC50, μg/ml) ([1]; 14 day): 71.13 µg/mL
- Inhibitory effect (%) ([1]; 14 day, 37 μg/ml): 27.42 ± 1.51%
- Inhibitory effect (%) ([1]; 14 day, 55.5 μg/ml): 39.96 ± 0.90%
- Inhibitory effect (%) ([1]; 14 day, 74 μg/ml): 51.77 ± 1.91%
- inhibitory effect (IC50, μg/ml) ([1]; 28 day): 91.30 µg/mL
- Inhibitory effect (%) ([1]; 28 day, 18.5 μg/ml): 14.89 ± 4.11%
- Inhibitory effect (%) ([1]; 28 day, 37.0 μg/ml): 24.93 ± 3.46%
- Inhibitory effect (%) ([1]; 28 day, 92.5 μg/ml): 50.41 ± 0.41%
SMILES: N=C(N)NN [Aminoguanidine]
- expressions of AGEs and RAGE in kidney ([2]; 100 mg/kg): significantly reduced
- podocyte loss in glomerulus, synaptopodin and WT1 staining ([2]; 100 mg/kg, vs diabetes group): podocyte loss was reduced
- fibrosis by collagen in kidney cortex, Masson's trichrome staining ([2]; 8 weeks): such change was not peculiar
- glomerular basement membrane thickening, PAS staining ([2]; 8 weeks, vs untreated diabetes group): any change in glomerular basement membrane thickening was not observed
- Albuminuria [2, 3]: decreased significantly
- Urine alb/Cr [2, 3]: decreased
- Body weight (g) Initial ([2]; STZ diabetic rats, 100 mg/kg): 244.3 ± 4.02 g
- ALT (U/L) [2, 4]: 158.9 ± 26.25 U/L
- AST (U/L) [2, 4]: 341.6 ± 70.90 U/L
- Body weight (g) Final [2, 4]: 210.3 ± 9.98 g
- 8-OHdG in kidney ([2]; vs diabetes group): reduced in the group treated with AG, but the decrease was not that significant
